Test results reported in patent US20220183282A1, “Fatty Acid Derivatives For Improving The Effect Of Agrochemical Actives” (priority 2019, published 2022).

Columns and labels:
apple leaf cuticles [1] = assay: Penetration of Mesosulfuron-methyl through isolated apple leaf cuticles in the presence of test substances; type: in vitro ADME; settings: Mesosulfuron-methyl 0.1 g/L in spray liquid, no test substance, 10° C./61% rel. air humidity
Text: (§1) Surfactants can affect the absorption of (active) ingredients through membranes such as skin, films or the plant cuticle. As a “finite-dose” application, it is known for the single administration or application of a solution, cream, gel etc. to a membrane that the absorption of active ingredient can be influenced by some additives such as surfactants even after wetting.
(§2) The principle of the method has been published and described in detail e.g. in WO-A-2005/194844 or WO2017211572 A1). The leaf cuticles were enzymatically isolated in the manner described in the literature from apple leaves of orchard trees in a commercial stone fruit growing facility near Frankfurt am Main in 2017. The stomata-free cuticles were first dried under air and then installed into stainless steel diffusion cells. After application to the original upper side of the leaf and evaporation of the test liquid, i.e. of the spray liquids of the active ingredients with or without the inventive substances or comparative compositions, the diffusion cells were transferred into thermostated blocks and charged with aqueous liquid. The water used to make up the aqueous test liquids was local tap water (of known composition). At regular intervals, aliquot samples were taken and the proportion of active ingredient penetrated was determined by HPLC or alternatively by radio-chemical method where radio-labelled active ingredient was used as tracer to determine the concentration. During the experiment, the temperature in the system (block, diffusion cells, liquids, etc.) and the air humidity above the spray deposit on the cuticle were controlled. […] The analytical determination by means of HPLC (1290 Infinity, Agilent) was effected thereafter with a Kinetex column 30×2, 1 mm, 2.6μ C18 100 A (Phenomenex), taking a 20 μL aliquot as injection volume at the specified times. In each case, the geometric mean values of the penetration for intact membranes at the mean measurement times are given.

apple leaf cuticles [2] = assay: Penetration of lodosulfuron-methyl through isolated apple leaf cuticles in the presence of test substances; type: in vitro ADME; settings: lodosulfuron-methyl 0.1 g/L in spray liquid, no test substance, 10° C./61% rel. air humidity
Text: as §1, §2

apple leaf cuticles [3] = assay: Penetration of Imidacloprid through isolated apple leaf cuticles in the presence of test substances; settings: apple, 0.5 g/L
Text: as §1
(§3) The principle of the method has been published and described in detail e.g. in WO-A-2005/194844 or WO2017211572 A1). The leaf cuticles were enzymatically isolated in the manner described in the literature from apple leaves of orchard trees in a commercial stone fruit growing facility near Frankfurt am Main in 2017. The stomata-free cuticles were first dried under air and then installed into stainless steel diffusion cells. After application to the original upper side of the leaf and evaporation of the test liquid, i.e. of the spray liquids of the active ingredients with or without the inventive substances or comparative compositions, the diffusion cells were transferred into thermostated blocks and charged with aqueous liquid. The water used to make up the aqueous test liquids was local tap water (of known composition). At regular intervals, aliquot samples were taken and the proportion of active ingredient penetrated was determined by HPLC or alternatively by radio-chemical method where radio-labelled active ingredient was used as tracer to determine the concentration. During the experiment, the temperature in the system (block, diffusion cells, liquids, etc.) and the air humidity above the spray deposit on the cuticle were controlled. In the experiment, relative air humidity was constant throughout at 56% relative air humidity (air over supersaturated calcium nitrate) at a constant 10° C. or 25° C. The analytical determination by means of HPLC (1290 Infinity, Agilent) was effected thereafter with a Kinetex column 30×2, 1 mm, 2.6μ C18 100 A (Phenomenex), taking a 20 μL aliquot as injection volume at the specified times. In each case, the geometric mean values of the penetration for intact membranes at the mean measurement times are given.

[4] = Dynamic surface tension, bubble pressure method (BP2100 tensiometer, Krüss); type: physicochemical
Protocol: Dynamic surface tension was determined via the bubble pressure method (BP2100 tensiometer, Krüss). Given a timespan of relevance for the spray application of agrochemicals in aqueous dilution (called the surface age in the bubble pressure method) of 200 milliseconds (ms), the value for dynamic surface tension in [mN/m] correlates with the adhesion on plants that are difficult to wet, such as barley (cereal). A value of 50 mN/m (at 20-21° C.) with respect to water (72.8 mN/m) results in an improvement in the adhesion from “zero adhesion” (0%) to about 50% (Baur P., Pontzen R.; 2007; Basic features of plant surface wettability and deposit formation and the impact of adjuvant; in R. E. Gaskin ed. Proceedings of the 8th International Symposium on Adjuvants for Agrochemicals; Publisher: International Society for Agrochemical Adjuvants (ISAA), Columbus, Ohio, USA).

apple leaf cuticles [5] = assay: Penetration of MCPA through isolated apple leaf cuticles in the presence of test substances; settings: MCPA 1.5 g/L in spray liquid, no test substance, 25° C./56% rel. air humidity
Text: as §1, §3

apple leaf cuticles [6] = assay: Penetration of Mesotrione through isolated apple leaf cuticles in the presence of test substances; settings: Mesotrione 0.5 g/L in spray liquid, no test substance
Text: as §1
as §3, with “In each case, the geometric mean values of the penetration for intact membranes at the mean measurement times are given.” left out

apple leaf cuticles [7] = assay: Penetration of Flufenacet through isolated apple leaf cuticles in the presence of test substances; settings: apple, 0.75 g/L
Text: as §1, §2

Which results are given for `COC(=O)c1ccc(CNS(C)(=O)=O)cc1S(=O)(=O)NC(=O)Nc1nc(OC)cc(OC)n1` [Mesosulfuron-methyl, reference compound]?
Mean penetration for Mesosulfuron-methyl after time (apple leaf cuticles [1]; 1 day): 0%; Mean penetration for Mesosulfuron-methyl after time (apple leaf cuticles [1]; 2 days): 0%

For `COC(=O)c1ccc(I)cc1S(=O)(=O)NC(=O)Nc1nc(C)nc(OC)n1` [lodosulfuron-methyl, reference compound], which “Mean penetration for lodosulfuron-methyl after time” value (apple leaf cuticles [2]; 1 day) is on record?
Its value is 0%.

And the “Mean penetration for lodosulfuron-methyl after time” value (apple leaf cuticles [2]; 2 days)?
The value was 0%.

With `O=[N+]([O-])NC1=NCCN1Cc1ccc(Cl)nc1` [Imidacloprid, reference compound] as the molecule, how does the “Mean penetration for Imidacloprid after time” value (apple leaf cuticles [3]; 1 day) read?
The value was 0.5%.

And the “Mean penetration for Imidacloprid after time” value (apple leaf cuticles [3]; 4 days)?
Its value is 1.3%.

For “C8/C10 fatty acid 6 EO ester methyl ether [A2]”, which “Dynamic Surface tension” value ([4]; 0.3 g/L, 20 ms) is on record?
Its value is 54.5 mN/m.

What about the “Dynamic Surface tension” value ([4]; 0.3 g/L, 50 ms) of the same molecule?
Its value is 54.5 mN/m.

And the “Dynamic Surface tension” value ([4]; 0.3 g/L, 100 ms)?
Its value is 54.5 mN/m.

And the “Dynamic Surface tension” value ([4]; 0.3 g/L, 200 ms)?
The value was 54.5 mN/m.

And the “Dynamic Surface tension” value ([4]; 1 g/L, 20 ms)?
The value was 42.0 mN/m.

And the “Dynamic Surface tension” value ([4]; 1 g/L, 50 ms)?
Its value is 42.0 mN/m.

And the “Dynamic Surface tension” value ([4]; 1 g/L, 100 ms)?
The value was 42.0 mN/m.

And the “Dynamic Surface tension” value ([4]; 1 g/L, 200 ms)?
The value was 42.0 mN/m.

And the “Dynamic Surface tension” value ([4]; 3 g/L, 20 ms)?
Its value is 31.5 mN/m.

And the “Dynamic Surface tension” value ([4]; 3 g/L, 50 ms)?
The value was 31.5 mN/m.

And the “Dynamic Surface tension” value ([4]; 3 g/L, 100 ms)?
Its value is 31.5 mN/m.

And the “Dynamic Surface tension” value ([4]; 3 g/L, 200 ms)?
The value was 31.5 mN/m.

And the “Dynamic Surface tension” value ([4]; 10 g/L, 20 ms)?
Its value is 28.5 mN/m.

What about the “Dynamic Surface tension” value ([4]; 10 g/L, 50 ms) of the same molecule?
The value was 28.5 mN/m.

And the “Dynamic Surface tension” value ([4]; 10 g/L, 100 ms)?
Its value is 28.5 mN/m.

What about the “Dynamic Surface tension” value ([4]; 10 g/L, 200 ms) of the same molecule?
Its value is 28.5 mN/m.

For `Cc1cc(Cl)ccc1OCC(=O)O` [MCPA, reference compound], which “Mean penetration for MCPA after time” value (apple leaf cuticles [5]; 0.5 day) is on record?
Its value is 9.0%.

And the “Mean penetration for MCPA after time” value (apple leaf cuticles [5]; 1 day)?
The value was 17.1%.

For `CS(=O)(=O)c1ccc(C(=O)C2C(=O)CCCC2=O)c([N+](=O)[O-])c1` [Mesotrione], which “Mean penetration for Mesotrione after time” value (apple leaf cuticles [6]; 1 day) is on record?
Its value is 0%.

What about the “Mean penetration for Mesotrione after time” value (apple leaf cuticles [6]; 2 days) of the same molecule?
The value was 0%.

What does the source list for `CC(C)N(C(=O)COc1nnc(C(F)(F)F)s1)c1ccc(F)cc1` [Flufenacet, reference compound]?
Mean penetration for Flufenacet after time (apple leaf cuticles [7]; 1 day): 0.4%; Mean penetration for Flufenacet after time (apple leaf cuticles [7]; 2 days): 0.7%
